Patent US20260306460A1, “COMPOSITION FOR REMOVING AND INHIBITING SENESCENT CELLS, AND USES THEREOF” (LIFECEUTIX CO., LTD., priority 2023, published 2026)

How the values were obtained:
[1] = tested on: senescent A549 cells; assay: Viability of senescent A549 cells (CellTiter-Glo), Example 18, Table 15; conditions: doxorubicin-induced senescent A549 cells, 0 μM = 100%
Procedure: Senescence-induced cancer cells treated with doxorubicin were treated with the test compound at designated concentrations, and cell viability was measured using the CellTiter-Glo Luminescent Cell Viability Assay (Promega).

[2] = tested on: senescent cells; assay: Viability of senescent cells (CellTiter-Glo), Example 17, Table 13; conditions: doxorubicin-induced senescent cells, 0 μM = 100
Procedure: Cells induced to undergo senescence by doxorubicin treatment were treated with test compound at designated concentrations and measured using the CellTiter-Glo Luminescent Cell Viability Assay (Promega).

[3] = tested on: HMGN1 secreted from senescent A549 cells; assay: HMGN1 secretion (ELISA) from senescent A549 cells, Example 18, Table 14; format: cell-based, human; conditions: doxorubicin-senescent A549, without test compound (DMSO) = 100%; 30 μM (LX-5211, LX-5433, LX-6530, LX-6800, LX-9105, LX-9118, LX-9131, LX-9136, LX-9302, LX-9321, LX-9565, LX-9602 at 90 μM; LX-9336 at 2.4 mM)
Procedure: On the other hand, in cancer cells treated with doxorubicin, where senescence was induced, the amount of HMGN1 measured under conditions where cells were not treated with the test compound was calculated as 100%, and the amount of HMGN1 was measured under conditions where the senescent cancer cells were treated with the test compound.

[4] = tested on: HMGN1 secreted from senescent cells; assay: HMGN1 secretion (ELISA) from doxorubicin-induced senescent cells, Example 17; format: cell-based, human; conditions: senescent untreated = 100%; 30 μM; 90 μM for LX-5211, 5433, 6530, 9105, 9118, 9321, 9602; 2.4 mM for LX-9336
[5] = tested on: bleomycin-induced pulmonary fibrosis mice; assay: Bleomycin-induced pulmonary fibrosis mice, Example 31, Table 56; format: in vivo, mouse; conditions: untreated = 100%
In short: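 Mice with bleomycin-induced pulmonary fibrosis, untreated or given test compound, with vehicle-only controls. Lung tissue collected for RNA extraction and qRT-PCR analysis.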

[6] = tested on: carbon tetrachloride-induced liver fibrosis mice; assay: Carbon tetrachloride-induced liver fibrosis mice, Example 31, Table 57; format: in vivo, mouse; conditions: CCl4-induced liver fibrosis mice, untreated = 100%
In short: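 Mice with induced hepatic fibrosis received either the test compound or, as controls, an equal volume of vehicle solution alone. Once dosing ended, liver tissue was harvested and total RNA was isolated. cDNA was synthesized from this RNA, and quantitative RT-PCR was run on it to measure hepatic mRNA levels of the fibrosis- and senescence-related genes.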

[7] = tested on: naturally aged mice; assay: Anti-aging evaluation in naturally aged mice, Example 31, Table 55; format: in vivo, mouse; conditions: for Femur Ctsk mRNA / Kidney Agtr1a mRNA / Liver IL6 mRNA / Liver MMP3 mRNA / Liver p16 mRNA / Open Field Test Time in Center: untreated = 100%; for Heart Sur2a mRNA / Joint Col2a1 mRNA / Skin Col1a1 mRNA / Skin SDF1 mRNA: untreated = 1.0; for Muscle Mass: untreated 0.64 g; for Fat Mass: untreated 0.82 g; for Cataract incidence: untreated 83%;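 for all read-outs here: Vehicle-dosed control mice received solution alone at matching volume, values compare test-compound-treated aged mice against that control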
Procedure: After the end of drug administration, the method described in each example below was performed. […] The mRNA amounts of p16, MMP3, and IL6 after natural aging was induced were calculated as 100% and compared with the mRNA amounts of p16, MMP3, and IL6 after treatment with the test compound. In addition, an open field test for the analysis of aging-related frailty, agtr1a mRNA analysis for kidney damage and disease evaluation, col1a1 and SDF1 mRNA analysis for skin aging evaluation such as wrinkles/loss of elasticity/hyperpigmentation, col2a1 mRNA analysis for evaluating joint aging such as osteoarthritis, sur2a mRNA analysis for evaluating cardiac aging such as decreased cardiac load resistance, ctsk mRNA analysis for evaluating bone diseases due to aging such as osteoporosis, muscle tissue weight for analyzing sarcopenia, fat tissue weight for analyzing lipoatrophy, and cataract incidence analysis were performed in mice. For cataract incidence analysis, the drug was administered twice a week under the conditions specified above, and biweekly examinations were conducted until death.

Compound	Survival (%) ([1]; 1.1 μM)	Survival (%) ([1]; 10 μM)	Survival (%) ([1]; 30 μM)	Survival (%) ([1]; […])	Survival (%) ([2]; 1.1 μM)	Survival (%) ([2]; 10 μM)	Survival (%) ([2]; 30 μM)	Survival (%) ([2]; […])	HMGN1 [3]	HMGN1 [4]	also measured
CC(=O)[O-].CC(=O)[O-].CCc1c(CC)c2cc3nc(cnc4cc(OCCOCCOCCOC)c(OCCOCCOCCOC)cc4ncc4nc(cc1[n-]2)C(CCCO)=C4C)C(C)=C3CCCO.O.[Gd+3] [LX-5211, Motexafin Gadolinium]	102.8%	88.1%	49.2%	98.8%	97.6%	92.7%	87.1%	95.2%	262%	253%	Survival (%) ([1]; 90 μM): 16.6%; Survival (%) ([2]; 90 μM): 22.7%
CN1CCc2c(c3ccccc3n2Cc2ccc(C(=O)NO)cc2)C1 [LX-5352, Tubastatin A]	97.6%	51.8%	22.2%	87.5%	87.9%	32.4%	1.9%	61.6%	210%	194%	–
COC[C@]1(CO)C(=O)[C@H]2CC[N@]1[C@H](C)C2 [LX-5731, (1R,2R,4S,6R)-2-(hydroxymethyl)-2-(methoxymethyl)-6-methylquinuclidin-3-one]	94.4%	30.6%	–	83.1%	98.8%	48.2%	11.7%	89.8%	307%	235%	Lung p16 mRNA [5]: 69 (±3.7) %; Col1a1 mRNA [5]: 62 (±13.8) %; Liver p16 mRNA [6]: 60 (±6.5) %; Col1a1 mRNA [6]: 64 (±10.4) %; Femur Ctsk mRNA [7]: 44%; Heart Sur2a mRNA [7]: 2.5 fold; Joint Col2a1 mRNA [7]: 2.7 fold; Kidney Agtr1a mRNA [7]: 49%; Liver IL6 mRNA [7]: 42%; Liver MMP3 mRNA [7]: 77%; Liver p16 mRNA [7]: 58%; Open Field Test Time in Center [7]: 237%; Skin Col1a1 mRNA [7]: 2.3 Fold; Skin SDF1 mRNA [7]: 2.0 fold; Muscle Mass [7]: 0.71 g; Fat Mass [7]: 1.01 g; Cataract incidence [7]: 72%
CN(CC(=O)Nc1nc2ccc(OC(F)(F)F)cc2s1)C(=O)CNC(=O)CN [LX-6216, Troriluzole]	93.8%	53.1%	14.6%	87.5%	94.5%	68.8%	24.3%	87.5%	237%	221%	–
Nc1cc(COc2c(Cl)cc(C[C@H](N)C(=O)O)cc2Cl)c2oc(-c3ccccc3)nc2c1 [LX-6233, Nanvuranlat]	91.8%	34.5%	10.1%	72.4%	83.7%	32.7%	11.3%	61.2%	228%	241%	–
O=C1C2=C(CCN(Cc3ccccc3)C2)N2CCN=C2N1Cc1ccc(C(F)(F)F)cc1 [LX-7263]	53.6%	–	–	11.1%	49.2%	–	–	0.9%	283%	267%	–
CCCCCC/C=C\CCCCCCCCCC(=O)N[C@H]1[C@H](OC[C@H]2O[C@H](OP(=O)([O-])[O-])[C@H](NC(=O)CC(=O)CCCCCCCCCCC)[C@@H](OCCCCCCCCCC)[C@@H]2O)O[C@H](COC)[C@@H](OP(=O)([O-])[O-])[C@@H]1OCC[C@@H](CCCCCCC)OC.[Na+].[Na+].[Na+].[Na+] [LX-9136, Eritoran tetrasodium]	91.1%	70.9%	44.8%	83.4%	84.6%	71.1%	23.1%	76.9%	296%	263%	Survival (%) ([1]; 90 μM): 6.7%
CCCCCCCCCCCCCCCCCCCC(=O)N[C@H]1CC[C@@]2(C)[C@@H](C1)C[C@@H](O)[C@@H]1[C@@H]2C[C@H](O)[C@]2(C)[C@@H]([C@H](C)CCC(=O)O)CC[C@@H]12 [LX-9343, Icomidocholic acid]	103.7%	74.4%	11.9%	104.0%	101.2%	74.2%	30.5%	84.2%	274%	305%	–
CCNCc1nc2c(O)c(Cl)cc(Cl)c2c(=O)n1C [LX-9421]	102.9%	62.3%	20.7%	83.3%	92.1%	67.9%	25.9%	89.3%	284%	201%	Lung p16 mRNA [5]: 35 (±1.6) %; Col1a1 mRNA [5]: 40 (±2.0) %; Liver p16 mRNA [6]: 59 (±5.4) %; Col1a1 mRNA [6]: 34 (±3.7) %; Femur Ctsk mRNA [7]: 44%; Heart Sur2a mRNA [7]: 2.1 fold; Joint Col2a1 mRNA [7]: 2.8 fold; Kidney Agtr1a mRNA [7]: 46%; Liver IL6 mRNA [7]: 41%; Liver MMP3 mRNA [7]: 32%; Liver p16 mRNA [7]: 57%; Open Field Test Time in Center [7]: 222%; Skin Col1a1 mRNA [7]: 2.3 Fold; Skin SDF1 mRNA [7]: 2.6 fold; Muscle Mass [7]: 0.78 g; Fat Mass [7]: 0.99 g; Cataract incidence [7]: 54%
CCO[C@@H](Cc1ccc(OCCn2c(C)ccc2-c2ccc(SC)cc2)cc1)C(=O)[O-].CCO[C@@H](Cc1ccc(OCCn2c(C)ccc2-c2ccc(SC)cc2)cc1)C(=O)[O-].[Mg+2] [LX-9717, Saroglitazar Magnesium]	94.6%	75.4%	10.4%	87.6%	101.2%	73.5%	21.5%	92.7%	231%	226%	–
Batiraxcept [LX-6982]	90.9%	77.8%	6.9%	88.9%	95.1%	74.6%	10.5%	86.8%	306%	234%	–
Farletuzumab [LX-7621]	91.5%	69.7%	14.4%	78.4%	86.3%	78.2%	50.2%	82.1%	237%	304%	–
Mirvetuximab [LX-7622]	88.6%	71.1%	4.3%	81.0%	99.1%	75.7%	17.7%	94.1%	–	293%	–
Sulforadex [LX-7104]	103.3%	58.7%	18.1%	81.2%	88.5%	45.7%	2.8%	75.7%	246%	287%	–
